# Source: article PMC6199744, “Development of Chemical Proteomics for the Folateome and Analysis of the Kinetoplastid Folateome” (ACS Infectious Diseases, 2018)
# Like-named read-outs stand apart in the source and are kept apart here.
# Key:
# DHFR-TS [1] = target: DHFR-TS (Leishmania major, UniProt P07382); assay: biochemical; settings: competing free ligand 100 μM; bead = immobilized compound of the row; L. major lysate; read-out: % Inhibition of protein binding to bead, DHFR-TS, L. major
# DHFR-TS [2] = target: DHFR-TS (Trypanosoma brucei brucei, UniProt Q27783); assay: Individual bead pull down with competing free ligand; settings: competing free ligand 100 μM; bead = immobilized compound of the row; T. brucei lysate; read-out: % Inhibition of protein binding to bead, DHFR-TS, T. brucei
# Chain of DHFR-TS (Trypanosoma brucei brucei, UniProt Q27783) (Q27783 whole entry): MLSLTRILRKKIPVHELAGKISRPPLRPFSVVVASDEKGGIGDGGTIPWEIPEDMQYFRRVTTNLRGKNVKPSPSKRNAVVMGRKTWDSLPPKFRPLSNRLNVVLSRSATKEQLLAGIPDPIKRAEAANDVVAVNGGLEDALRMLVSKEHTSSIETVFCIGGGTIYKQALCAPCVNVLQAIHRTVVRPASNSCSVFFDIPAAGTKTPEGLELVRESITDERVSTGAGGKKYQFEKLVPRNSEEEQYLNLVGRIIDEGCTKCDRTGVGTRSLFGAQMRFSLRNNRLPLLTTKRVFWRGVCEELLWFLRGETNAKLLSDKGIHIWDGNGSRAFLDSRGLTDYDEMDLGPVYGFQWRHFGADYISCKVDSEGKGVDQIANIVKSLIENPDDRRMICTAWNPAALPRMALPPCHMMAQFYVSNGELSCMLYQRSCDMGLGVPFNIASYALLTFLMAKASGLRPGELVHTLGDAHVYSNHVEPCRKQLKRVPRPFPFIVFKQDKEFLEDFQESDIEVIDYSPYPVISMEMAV
# Excerpt: (§1) Antifolate compounds were immobilized onto NHS-activated sepharose beads/reverse sepharose beads through amide coupling via either an amino or carboxyl group (see Figure 3). The reaction was monitored by observing the disappearance of test compound by LCMS, after which the unreacted coupling sites were capped with NHS-acetate or aminoethanol.
# (§2) Folate metabolizing enzymes are not highly abundant proteins,[19],[20] potentially making their identification by MS difficult. Beads will not only pull down the low abundant high affinity binders but also attract highly abundant, low affinity binders or so-called nonspecific binders. Sometimes, the nonspecific high abundant proteins can mask true binders. The target identification approach used in this study overcomes this issue by performing competition studies. Various concentrations of the free unmodified inhibitor (test compound) were preincubated with the lysate, prior to addition of the beads derivatized with immobilized compounds. Following washing of the bound proteins from the beads and tryptic digest, the peptides were labeled using the TMTs and then pooled. Differences in peptide abundance were analyzed by fragmentation of the isotope-coded isobaric tags in the MS/MS spectra (Figure 5).[9],[11],[12],[21] While the competition experiments with test compound confirm specific binding, it is also possible that some proteins will have a stronger binding interaction with the derivatized beads than the competing test compound, due to subtle differences in the interactions between the immobilized compound and the test compound with the target protein.
# PTR-1 = PTR-1 (Trypanosoma brucei brucei, UniProt O76290); assay: as above; settings: competing free ligand 100 μM; bead = immobilized compound of the row; T. brucei lysate; read-out: % Inhibition of protein binding to bead, PTR-1, T. brucei
# Chain of PTR-1 (O76290 entry or part of it): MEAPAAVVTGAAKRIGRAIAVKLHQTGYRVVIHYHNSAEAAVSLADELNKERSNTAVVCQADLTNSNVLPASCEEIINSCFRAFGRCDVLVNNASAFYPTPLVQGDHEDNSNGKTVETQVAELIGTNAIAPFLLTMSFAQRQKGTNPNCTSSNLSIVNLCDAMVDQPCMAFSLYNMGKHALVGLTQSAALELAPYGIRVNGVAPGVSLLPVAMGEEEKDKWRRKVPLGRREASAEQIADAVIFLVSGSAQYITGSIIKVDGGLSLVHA
# Excerpt: as §1, §2
# [3] = test system: HYPOTHETICAL PROTEIN, CONSERVED (TB427.03.2670); assay: Multitargeted bead mixture competition; format: binding; settings: free ligand 100 μM, T. brucei lysate
# [4] = test system: HYPOTHETICAL PROTEIN, CONSERVED (TB427.05.3680); assay: Multitargeted bead mixture competition; format: binding; settings: free ligand 100 μM, T. brucei lysate
# TB09.211.1690 = assay: Multitargeted bead mixture competition; format: binding; settings: free ligand 100 μM, T. brucei lysate
# [5] = test system: IRON/ASCORBATE OXIDOREDUCTASE FAMILY PROTEIN, PUTA (Tb427.02.6180); assay: Multitargeted bead mixture competition; format: binding, T. brucei; settings: multitargeted bead mixture; free ligand 100 μM; T. brucei lysate; Tb427.02.6180
# [6] = test system: ACETYLTRANSFERASE, PUTATIVE (Tb427.08.3310); assay: Multitargeted bead mixture competition; format: binding; settings: free ligand 100 μM, T. brucei lysate
# TB11.03.0290 = assay: Multitargeted bead mixture competition; format: binding, T. brucei; settings: multitargeted bead mixture; free ligand 100 μM; T. brucei lysate; TB11.03.0290
# [7] = test system: CHOLINE KINASE (TB427TMP.18.0017); assay: Multitargeted bead mixture competition; format: binding, T. brucei; settings: multitargeted bead mixture; free ligand 100 μM; T. brucei lysate; TB427TMP.18.0017 CHOLINE KINASE
# TbTS = settings: recombinant protein assay; ref 6 (SI); read-out: Ki, recombinant TbTS; cited from earlier work
# [8] = test system: SUCCINYL-COA SYNTHETASE ALPHA SUBUNIT, PUTATIVE (Tb427.03.2230); assay: Multitargeted bead mixture competition; format: binding; settings: free ligand 100 μM, T. brucei lysate
# [9] = test system: PROTEIN KINASE, PUTATIVE (Tb427.03.1570); assay: Multitargeted bead mixture competition; format: binding; settings: free ligand 100 μM, T. brucei lysate
# TB927.8.6760 = assay: Multitargeted bead mixture competition; format: binding; settings: free ligand 100 μM, T. brucei lysate
# [10] = target: GLYCERALDEHYDE 3-PHOSPHATE DEHYDROGENASE, GLYCOSOM (TB427.06.4300) (Trypanosoma brucei brucei, UniProt P22512); assay: Multitargeted bead mixture competition; format: binding, T. brucei; settings: multitargeted bead mixture; free ligand 100 μM; T. brucei lysate; TB427.06.4300 GAPDH
# Chain of UniProt P22512 (P22512 whole entry): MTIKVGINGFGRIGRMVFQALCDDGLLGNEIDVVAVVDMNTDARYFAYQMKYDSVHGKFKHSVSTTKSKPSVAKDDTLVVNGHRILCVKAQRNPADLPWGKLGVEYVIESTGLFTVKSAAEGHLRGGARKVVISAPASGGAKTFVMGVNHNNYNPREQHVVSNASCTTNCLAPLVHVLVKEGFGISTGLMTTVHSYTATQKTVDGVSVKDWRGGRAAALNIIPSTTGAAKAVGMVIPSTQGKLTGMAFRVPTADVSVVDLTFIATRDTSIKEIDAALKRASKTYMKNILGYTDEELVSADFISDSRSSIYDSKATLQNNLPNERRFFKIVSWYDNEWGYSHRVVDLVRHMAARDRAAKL
# TB427.04.1870 = assay: Multitargeted bead mixture competition; format: binding; settings: free ligand 100 μM, T. brucei lysate
# [11] = target: DIHYDROFOLATE REDUCTASE-T[…] (TB427.07.5480) (Trypanosoma brucei brucei, UniProt Q27783); assay: Multitargeted bead mixture competition; format: binding; settings: multitargeted bead mixture; free ligand 100 μM; T. brucei lysate; TB427.07.5480 DHFR-TS
# Chain of UniProt Q27783 (Q27783 whole entry): as the sequence (Q27783 whole entry) above
# [12] = target: T1, MTHFS, the 5-formyl-THF-cyclo-ligase (Homo sapiens, UniProt P49914); assay: Multitargeted bead mixture competition, HeLa cell extract; format: binding; settings: bead mixture; HeLa cell extract
# T1 sequence (P49914 1-203): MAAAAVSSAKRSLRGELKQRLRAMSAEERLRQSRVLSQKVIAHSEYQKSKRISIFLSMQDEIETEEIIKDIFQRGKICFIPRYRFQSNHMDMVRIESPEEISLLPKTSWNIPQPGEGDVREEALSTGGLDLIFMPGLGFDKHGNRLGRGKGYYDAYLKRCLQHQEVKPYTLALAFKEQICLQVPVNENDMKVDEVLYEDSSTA
# [13] = test system: NGG1 INTERACTING FACTOR 3-LIKE (Tb427tmp.02.5000); format: binding; settings: multitargeted bead mixture; free ligand 100 μM; T. brucei lysate; Tb427tmp.02.5000
# TB927.8.6460 = assay: Multitargeted bead mixture competition; format: binding, T. brucei; settings: multitargeted bead mixture; free ligand 100 μM; T. brucei lysate; TB927.8.6460
# [14] = target: PTERIDINE REDUCTASE (TB927.8.2210) (Trypanosoma brucei brucei, UniProt O76290); assay: Multitargeted bead mixture competition; format: binding, T. brucei; settings: multitargeted bead mixture; free ligand 100 μM; T. brucei lysate; TB927.8.2210 PTERIDINE REDUCTASE
# Chain of PTERIDINE REDUCTASE (TB927.8.2210) (O76290 entry or part of it): as the sequence (O76290 entry or part of it) above
# PTR1 = target: T2, PTR1 (Leishmania major, UniProt Q01782); assay: biochemical; settings: competing free ligand 100 μM; bead = immobilized compound of the row; L. major lysate; read-out: % Inhibition of protein binding to bead, PTR-1, L. major
# T2 sequence (Q01782 1-288): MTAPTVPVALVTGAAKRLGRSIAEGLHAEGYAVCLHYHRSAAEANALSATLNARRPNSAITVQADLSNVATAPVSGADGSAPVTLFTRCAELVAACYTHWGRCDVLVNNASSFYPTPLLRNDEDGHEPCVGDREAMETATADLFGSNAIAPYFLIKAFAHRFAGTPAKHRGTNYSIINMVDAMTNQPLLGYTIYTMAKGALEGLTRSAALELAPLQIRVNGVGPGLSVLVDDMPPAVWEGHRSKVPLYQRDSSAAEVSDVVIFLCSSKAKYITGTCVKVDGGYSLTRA
# [15] = test system: PHOSPHATIDYLINOSITOL-4-PHOSPHATE 5-KINASE, PUTATIV (TB427.10.3890); assay: Multitargeted bead mixture competition; format: binding; settings: free ligand 100 μM, T. brucei lysate
# TB927.7.1340 = assay: Multitargeted bead mixture competition; format: binding; settings: free ligand 100 μM, T. brucei lysate
# [16] = test system: PEPTIDYL-PROLYL CIS-TRANS ISOMERASE (CYCLOPHILIN- (TB427TMP.211.1350)); assay: Multitargeted bead mixture competition; format: binding; settings: free ligand 100 μM, T. brucei lysate
# [17] = test system: HYPOTHETICAL PROTEIN, CONSERVED (Tb427.10.6100); assay: Multitargeted bead mixture competition; format: binding; settings: free ligand 100 μM, T. brucei lysate
# [18] = test system: BRANCHED-CHAIN AMINO ACID AMINOTRANSFERASE, PUTATI (TB427.02.4590); assay: Multitargeted bead mixture competition; format: binding; settings: free ligand 100 μM, T. brucei lysate
# leishmania DHCH enzyme = target: leishmania DHCH enzyme; set-up: method as in ref 10 (SI); settings: ref 10 (SI); cited from earlier work
# human enzyme (DHCH) = target: human enzyme (DHCH); set-up: method as in ref 8 (SI); settings: ref 8 (SI); cited from earlier work
# [19] = test system: T. brucei lysate proteins; format: binding, Trypanosoma brucei; settings: X016405, bead mixture, free compound 100.0uM, Trypanosoma brucei
# Chain of DHFR-TS (Leishmania major, UniProt P07382) (P07382 whole entry): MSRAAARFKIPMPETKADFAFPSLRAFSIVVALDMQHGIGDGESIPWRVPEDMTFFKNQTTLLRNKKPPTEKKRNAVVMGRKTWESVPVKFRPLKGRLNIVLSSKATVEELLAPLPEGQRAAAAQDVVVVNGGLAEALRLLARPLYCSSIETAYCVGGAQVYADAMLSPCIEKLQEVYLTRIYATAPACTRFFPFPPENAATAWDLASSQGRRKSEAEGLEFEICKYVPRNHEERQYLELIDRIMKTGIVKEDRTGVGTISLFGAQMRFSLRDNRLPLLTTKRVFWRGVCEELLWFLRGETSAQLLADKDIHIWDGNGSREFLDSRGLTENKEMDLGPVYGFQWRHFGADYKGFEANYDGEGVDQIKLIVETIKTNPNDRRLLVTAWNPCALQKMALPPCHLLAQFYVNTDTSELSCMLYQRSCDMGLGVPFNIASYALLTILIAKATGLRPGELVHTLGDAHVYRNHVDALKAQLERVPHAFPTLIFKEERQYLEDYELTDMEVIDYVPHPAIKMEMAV
compound,measurement,setting,value
Nc1nc(=O)c2nc(CNc3ccc(C(=O)N[C@@H](CCC(=O)O)C(=O)O)cc3)cnc2[nH]1 [Folic acid],inhibition at 100 µM,DHFR-TS [1],85%
same,inhibition at 100 µM,DHFR-TS [2],77%
same,inhibition at 100 µM,PTR-1,92%
"Cc1ccc2nc(N)[nH]c(=O)c2c1Sc1ccncc1 [NTX, nolatrexed]",percentage of competition from bead binding,[3],11%
same,percentage of competition from bead binding,[4],38%
same,percentage of competition from bead binding,TB09.211.1690,-7%
same,inhibition at 100 µM,DHFR-TS [1],< 50%
same,percentage of competition from bead binding,[5],52%
same,percentage of competition from bead binding,[6],29%
same,percentage of competition from bead binding,TB11.03.0290,77%
same,percentage of competition from bead binding,[7],34%
same,Ki,TbTS,0.0394 µM
same,percentage of competition from bead binding,[8],27%
same,percentage of competition from bead binding,[9],11%
same,percentage of competition from bead binding,TB927.8.6760,8%
same,percentage of competition from bead binding,[10],18%
same,percentage of competition from bead binding,TB427.04.1870,52%
same,percentage of competition from bead binding,[11],-5%
same,binding to MTHFS,[12],bound MTHFS
same,percentage of competition from bead binding,[13],87%
same,percentage of competition from bead binding,TB927.8.6460,68%
same,percentage of competition from bead binding,[14],16%
same,inhibition at 100 µM,PTR1,< 50%
same,percentage of competition from bead binding,[15],16%
same,percentage of competition from bead binding,TB927.7.1340,11%
same,percentage of competition from bead binding,[16],1%
same,percentage of competition from bead binding,[17],33%
same,percentage of competition from bead binding,[18],9%
Nc1nc2c(c(=O)[nH]1)N1C(=O)N(c3ccc(C(=O)NC(CCC(=O)O)C(=O)O)cc3)CC1CN2 (stereo not drawn) [compound 4],Ki,leishmania DHCH enzyme,0.105 ± 0.002 µM
same,Ki,human enzyme (DHCH),0.018 ± 0.005 µM
Nc1nc(O)c2c(CCc3ccccc3)c[nH]c2n1 [compound 5],percentage of competition from bead binding,[3],54%
same,percentage of competition from bead binding,[4],70%
same,percentage of competition from bead binding,TB09.211.1690,-34%
same,percentage of competition from bead binding,[5],80%
same,percentage of competition from bead binding,[6],61%
same,percentage of competition from bead binding,TB11.03.0290,61%
same,percentage of competition from bead binding,[7],49%
same,percentage of competition from bead binding,[8],51%
same,percentage of competition from bead binding,[9],60%
same,percentage of competition from bead binding,TB927.8.6760,-71%
same,percentage of competition from bead binding,[10],15%
same,percentage of competition from bead binding,TB427.04.1870,50%
same,percentage of competition from bead binding,[11],5%
same,percentage of competition from bead binding,[13],6%
same,percentage of competition from bead binding,TB927.8.6460,65%
same,percentage of competition from bead binding,[14],93%
same,percentage of competition from bead binding,[15],49%
same,abundance relative to vehicle,[19]; protein TB427.02.1850,0.89
same,abundance relative to vehicle,[19]; protein TB427.06.4760,1.04
same,abundance relative to vehicle,[19]; protein TB427.07.3620,1.03
same,abundance relative to vehicle,[19]; protein TB427.08.1880,0.84
same,percentage of competition from bead binding,TB927.7.1340,-41%
same,percentage of competition from bead binding,[16],-24%
same,percentage of competition from bead binding,[17],77%
same,percentage of competition from bead binding,[18],-22%
NCCCCCOc1ccc(Cc2cnc(N)nc2N)cc1 [compound 10],inhibition at 100 µM,DHFR-TS [2],84%
same,inhibition at 100 µM,PTR-1,77%
NCCCCCOc1cccc(Cc2cnc(N)nc2N)c1 [compound 11],inhibition at 100 µM,DHFR-TS [2],87%
same,inhibition at 100 µM,PTR-1,56%
NCCOCCOc1cccc(Cc2cnc(N)nc2N)c1 [compound 12],inhibition at 100 µM,DHFR-TS [2],79%
same,inhibition at 100 µM,PTR-1,51%
NCCOCCOc1ccc(Cc2cnc(N)nc2N)cc1 [compound 13],inhibition at 100 µM,DHFR-TS [2],75%
same,inhibition at 100 µM,PTR-1,51%
